molecular target: recombinant CD73 (Homo sapiens (Human), UniProt P21589); test: Inhibition of soluble recombinant CD73 enzyme activity in vitro (AMP hydrolysis, Malachite Green phosphate detection); assay type: biochemical; details: recombinant CD73 0.5 nM, AMP 50 μM, 30 minutes at room temperature
Description: Inhibition of the CD73 Enzyme In Vitro
The concentration of inorganic phosphate was determined using a phosphate standard curve.

recombinant CD73, sequence (P21589 27-547): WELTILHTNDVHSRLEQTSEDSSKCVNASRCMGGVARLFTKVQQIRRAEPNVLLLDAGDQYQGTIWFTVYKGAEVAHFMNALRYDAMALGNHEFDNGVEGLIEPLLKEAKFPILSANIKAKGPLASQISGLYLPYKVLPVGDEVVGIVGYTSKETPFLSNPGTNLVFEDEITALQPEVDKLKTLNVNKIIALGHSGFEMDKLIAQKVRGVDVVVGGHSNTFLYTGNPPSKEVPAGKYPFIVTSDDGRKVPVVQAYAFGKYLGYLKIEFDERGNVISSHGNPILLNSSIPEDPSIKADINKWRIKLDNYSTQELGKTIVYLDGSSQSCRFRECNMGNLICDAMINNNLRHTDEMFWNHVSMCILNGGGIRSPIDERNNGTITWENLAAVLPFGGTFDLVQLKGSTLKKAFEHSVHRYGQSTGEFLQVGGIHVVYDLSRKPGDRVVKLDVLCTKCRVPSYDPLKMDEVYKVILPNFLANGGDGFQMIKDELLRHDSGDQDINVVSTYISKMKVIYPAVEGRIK

IC50 | SMILES
21600 nM | Nc1ncnc2c1ncn2[C@@H]1O[C@H](COC(Cc2ccccc2)(C(=O)O)C(=O)O)[C@@H](O)[C@H]1F
521 nM | CN(C)C(=O)c1cccc(CC(OC[C@H]2O[C@@H](n3cnc4c(N)nc(Cl)nc43)[C@@H](F)[C@@H]2O)(C(=O)O)C(=O)O)c1
206 nM | Nc1nc(Cl)nc2c1ncn2[C@@H]1O[C@H](COC(Cc2ccsc2)(C(=O)O)C(=O)O)[C@@H](O)[C@@H]1F
218 nM | Nc1cccc(CC(OC[C@H]2O[C@@H](n3cnc4c(N)nc(Cl)nc43)[C@@H](F)[C@@H]2O)(C(=O)O)C(=O)O)c1
97 nM | N#Cc1ccc(CC(OC[C@H]2O[C@@H](n3cnc4c(N)nc(Cl)nc43)[C@@H](F)[C@@H]2O)(C(=O)O)C(=O)O)cc1
531 nM | N#Cc1cccc(CC(OC[C@H]2O[C@@H](n3cnc4c(N)nc(Cl)nc43)[C@@H](F)[C@@H]2O)(C(=O)O)C(=O)O)c1
57 nM | Nc1nc(Cl)nc2c1ncn2[C@@H]1O[C@H](COC(Cc2ccc(OC(F)(F)F)cc2)(C(=O)O)C(=O)O)[C@@H](O)[C@@H]1F
160 nM | Nc1nc(Cl)nc2c1ncn2[C@@H]1O[C@H](COC(Cc2ccc(CO)cc2)(C(=O)O)C(=O)O)[C@@H](O)[C@@H]1F
119 nM | Nc1nc(Cl)nc2c1ncn2[C@@H]1O[C@H](COC(Cc2cccc(C(=O)O)c2)(C(=O)O)C(=O)O)[C@@H](O)[C@@H]1F
1040 nM | [N-]=[N+]=Nc1nc(N)c2ncn([C@@H]3O[C@H](COC(Cc4cccc(-c5nnn[nH]5)c4)(C(=O)O)C(=O)O)[C@@H](O)[C@@H]3F)c2n1
273 nM | Nc1nc(Cl)nc2c1ncn2[C@@H]1O[C@H](COC(Cc2cccc(F)c2)(C(=O)O)C(=O)O)[C@@H](O)[C@@H]1F
343 nM | Nc1nc(Cl)nc2c1ncn2[C@@H]1O[C@H](COC(Cc2ccc(F)cc2)(C(=O)O)C(=O)O)[C@@H](O)[C@@H]1F
839 nM | COc1cccc(CC(OC[C@H]2O[C@@H](n3cnc4c(N)nc(Cl)nc43)[C@@H](F)[C@@H]2O)(C(=O)O)C(=O)O)c1
7260 nM | CCOC(=O)C(Cc1ccc(-c2ccccc2)cc1)(OC[C@H]1O[C@@H](n2cnc3c(N)nc(Cl)nc32)[C@@H](F)[C@@H]1O)C(=O)O (single isomer, unassigned) [84 Isomer 1]
8260 nM | CCOC(=O)C(Cc1ccc(-c2ccccc2)cc1)(OC[C@H]1O[C@@H](n2cnc3c(N)nc(Cl)nc32)[C@@H](F)[C@@H]1O)C(=O)O (single isomer, unassigned) [84 Isomer 2]
130 nM | Nc1nc(Cl)nc2c1ncn2[C@@H]1O[C@H](COC(Cc2ccccc2)(C(=O)O)C(=O)O)[C@@H](O)[C@@H]1F [Example 6, 2-(((2R,3R,4S,5R)-5-(6-amino-2-chloro-9H-purin-9-yl)-4-fluoro-3-hydroxytetrahydro-furan-2-yl)methoxy)-2-benzylmalonic acid]
363 nM | Nc1nc(Cl)nc2c1ncn2[C@@H]1O[C@H](COC(Cc2ccc(Cl)nc2)(C(=O)O)C(=O)O)[C@@H](O)[C@@H]1F [Example 8, 2-(((2R,3R,4S,5R)-5-(6-amino-2-chloro-9H-purin-9-yl)-4-fluoro-3-hydroxytetrahydro-furan-2-yl)methoxy)-2-((6-chloropyridin-3-yl)methyl)malonic acid]
308 nM | Nc1nc(Cl)nc2c1ncn2[C@@H]1O[C@H](COC(Cc2cccc(OC(F)(F)F)c2)(C(=O)O)C(=O)O)[C@@H](O)[C@@H]1F [Example 15, 2-(((2R,3R,4S,5R)-5-(6-amino-2-chloro-9H-purin-9-yl)-4-fluoro-3-hydroxytetrahydrofuran-2-yl)methoxy)-2-(3-(trifluoromethoxy)benzyl) malonic acid]
109 nM | Nc1nc(Cl)nc2c1ncn2[C@@H]1O[C@H](COC(Cc2ccc(C(F)(F)F)cc2)(C(=O)O)C(=O)O)[C@@H](O)[C@@H]1F [Example 20, 2-(((2R,3R,4S,5R)-5-(6-amino-2-chloro-9H-purin-9-yl)-4-fluoro-3-hydroxytetrahydrofuran-2-yl)methoxy)-2-(4-(trifluoromethyl)benzyl) malonic acid]
51 nM | C[C@@]1(O)[C@@H](COC(Cc2ccccc2)(C(=O)O)C(=O)O)O[C@@H](n2cnc3c(N)nc(Cl)nc32)[C@@H]1O [Example 149]
16 nM | COc1ccccc1C(=O)Nc1ccc(CC(OC[C@H]2O[C@@H](n3cnc4c(N)nc(Cl)nc43)[C@@H](F)[C@@H]2O)(C(=O)O)C(=O)O)cc1 [Example 150]
31 nM | Nc1nc(Cl)nc2c1ncn2[C@@H]1O[C@H](COC(Cc2ccc(-c3ccccc3C(=O)O)cc2)(C(=O)O)C(=O)O)[C@@H](O)[C@@H]1F [Example 151]
34 nM | Cc1n[nH]c(C)c1-c1ccc(CC(OC[C@H]2O[C@@H](n3cnc4c(N)nc(Cl)nc43)[C@@H](F)[C@@H]2O)(C(=O)O)C(=O)O)cc1 [Example 152]
74 nM | CS(=O)(=O)c1ccc(-c2ccc(CC(OC[C@H]3O[C@@H](n4cnc5c(N)nc(Cl)nc54)[C@@H](F)[C@@H]3O)(C(=O)O)C(=O)O)cc2)cc1 [Example 153]
1800 nM | C=C1[C@@H](O)[C@H](n2cnc3c(N)nc(Cl)nc32)O[C@@H]1COC(Cc1ccccc1)(C(=O)O)C(=O)O [Example 154]
47 nM | Nc1nc(Cl)nc2c1ncn2[C@@H]1O[C@H](COC(Cc2ccc(-c3ccc(C(=O)O)cc3)cc2)(C(=O)O)C(=O)O)[C@@H](O)[C@@H]1F [Example 155]

IC50 | SMILES
86 nM | Nc1nc(Cl)nc2c1ncn2[C@@H]1O[C@H](COC(Cc2ccc(-c3ccncc3)cc2)(C(=O)O)C(=O)O)[C@@H](O)[C@@H]1F [Example 156]
34 nM | Cc1noc(C)c1-c1ccc(CC(OC[C@H]2O[C@@H](n3cnc4c(N)nc(Cl)nc43)[C@@H](F)[C@@H]2O)(C(=O)O)C(=O)O)cc1 [Example 157]
105 nM | Nc1nc(Cl)nc2c1ncn2[C@@H]1O[C@H](COC(Cc2ccc(-c3cccs3)cc2)(C(=O)O)C(=O)O)[C@@H](O)[C@@H]1F [Example 158]
76 nM | Nc1ncc(-c2ccc(CC(OC[C@H]3O[C@@H](n4cnc5c(N)nc(Cl)nc54)[C@@H](F)[C@@H]3O)(C(=O)O)C(=O)O)cc2)cn1 [Example 159]
12 nM | Nc1nc(Cl)nc2c1ncn2[C@@H]1O[C@H](COC(Cc2ccc(-c3ccccc3O)cc2)(C(=O)O)C(=O)O)[C@@H](O)[C@@H]1F [Example 160]
54 nM | Nc1nc(Cl)nc2c1ncn2[C@@H]1O[C@H](COC(Cc2ccc(N3CCCC3=O)cc2)(C(=O)O)C(=O)O)[C@@H](O)[C@@H]1F [Example 162]
8930 nM | Nc1nc(Cl)nc2c1ncn2[C@@H]1O[C@H](COC(Cc2ccccc2)(C(=O)O)C(=O)O)[C@@H](F)[C@H]1O [Example 165]
> 10000 nM | Nc1nc(Cl)nc2c1ncn2[C@@H]1O[C@H](COC(Cc2ccccc2)(C(=O)O)C(=O)O)[C@H](N)[C@H]1O [Example 166]
> 40000 nM | C[C@H]1[C@@H](O)[C@H](n2cnc3c(N)nc(Cl)nc32)O[C@@H]1COC(Cc1ccccc1)(C(=O)O)C(=O)O [Example 167]
1750 nM | C[C@@H]1[C@@H](O)[C@H](n2cnc3c(N)nc(Cl)nc32)O[C@@H]1COC(Cc1ccccc1)(C(=O)O)C(=O)O [Example 168]
119 nM | Nc1nc(Cl)nc2c1ccn2[C@@H]1O[C@H](COC(Cc2ccccc2)(C(=O)O)C(=O)O)[C@@H](O)[C@@H]1F [Example 169]
114 nM | Nc1nc(Cl)nc2c1ccn2[C@@H]1O[C@H](COC(Cc2ccc(C(=O)O)cc2)(C(=O)O)C(=O)O)[C@@H](O)[C@@H]1F [Example 171]
18 nM | CCOC(=O)c1ccccc1-c1ccc(CC(OC[C@H]2O[C@@H](n3cnc4c(N)nc(Cl)nc43)[C@@H](F)[C@@H]2O)(C(=O)O)C(=O)O)cc1 [Example 175]
56 nM | Nc1nc(Cl)nc2c1ncn2[C@@H]1O[C@H](COC(Cc2ccc(-c3ccccn3)cc2)(C(=O)O)C(=O)O)[C@@H](O)[C@@H]1F [Example 176]
48 nM | Cc1[nH]ncc1-c1ccc(CC(OC[C@H]2O[C@@H](n3cnc4c(N)nc(Cl)nc43)[C@@H](F)[C@@H]2O)(C(=O)O)C(=O)O)cc1 [Example 177]
16 nM | Nc1nc(Cl)nc2c1ncn2[C@@H]1O[C@H](COC(Cc2ccc(N3CCCCS3(=O)=O)cc2)(C(=O)O)C(=O)O)[C@@H](O)[C@@H]1F [Example 178]
9 nM | Nc1nc(Cl)nc2c1ncn2[C@@H]1O[C@H](COC(Cc2ccc(N3CCCNC3=O)cc2)(C(=O)O)C(=O)O)[C@@H](O)[C@@H]1F [Example 179]
> 100000 nM | C[C@@]1(F)C[C@@H](COC(Cc2ccc(C(=O)O)cc2)(C(=O)O)C(=O)O)O[C@H]1n1cnc2c(N)nc(Cl)nc21 [Example 180]
9 nM | Nc1nc(Cl)nc2c1ncn2[C@@H]1O[C@H](COC(Cc2ccc(-c3cccc(F)c3O)cc2)(C(=O)O)C(=O)O)[C@@H](O)[C@@H]1F [Example 181]
> 50000 nM | CCOC(=O)C(OC[C@H]1O[C@@H](n2cnc3c(N)nc(Cl)nc32)[C@H](O)[C@@H]1O)c1nnn[nH]1 (some centres unmarked) [Example 182]
11500 nM | CC(C)(C)OC(=O)Nc1nc(Cl)nc2c1ncn2[C@@H]1O[C@H](COC(Cc2ccccc2)(C(=O)O)c2nnnn2C(C)(C)c2ccccc2)[C@@H](O)[C@@H]1F (some centres unmarked) [Example 188]
> 50000 nM | CCOC(=O)C(Cc1ccccc1)(OC[C@H]1O[C@@H](n2cnc3c(N)nc(Cl)nc32)[C@@H](F)[C@@H]1O)c1nn[nH]n1 (some centres unmarked) [Example 193]
> 50000 nM | CCOC(=O)C(Cc1ccc(C(=O)OC)cc1)(OC[C@H]1O[C@@H](n2cnc3c(N)nc(Cl)nc32)[C@H](O)[C@@H]1O)c1nn[nH]n1 (some centres unmarked) [Example 195]
> 50000 nM | C[C@@]1(O)[C@H](O)[C@@H](COC(Cc2ccccc2)(C(=O)O)c2nn[nH]n2)O[C@H]1n1cnc2c(N)nc(Cl)nc21 (some centres unmarked) [Example 202]
7850 nM | CC(C)(C)n1nnc(C(Cc2ccccc2)(OC[C@H]2O[C@@H](n3cnc4c(N)nc(Cl)nc43)[C@H](O)[C@H]2O)C(=O)O)n1 (some centres unmarked) [Example 204]

SMILES | IC50
CC(C)(C)OC(=O)Nc1nc(N=[N+]=[N-])nc2c1ncn2[C@@H]1O[C@H](COC(Cc2cccc(C#N)c2)(C(=O)O)C(=O)O)[C@@H](O)[C@@H]1F | 1790 nM
Nc1nc(Cl)nc2c1ncn2[C@@H]1O[C@H](COC(C(=O)O)C(=O)O)[C@@H](O)[C@@H]1F [Example 5] | 13100 nM

— patent US10570167B2 (Calithera Biosciences, Inc., priority 2016, dated 2020)
